Measured values published in patent US20190275012A9, “SUBSTITUTED THIAZOLO-PYRIDINE COMPOUNDS AS MALT1 INHIBITORS” (Lupin Limited, priority 2016, published 2019).

Legend:
full length MALT1 enzyme = molecular target: T1, full length MALT1 enzyme (Homo sapiens, UniProt Q9UDY8); assay: MALT1 biochemical assay (fluorescence based, Ac-Leu-Arg-Ser-Arg-AMC cleavage); conditions: full length MALT1 protein, 2 h pre-incubation at RT, tetrapeptide substrate Ac-Leu-Arg-Ser-Arg-AMC, read-out: Malt 1 inhibition IC50
T1 construct: a fluorescence based assay with full length MALT1 enzyme
T1 sequence (Q9UDY8 1-824): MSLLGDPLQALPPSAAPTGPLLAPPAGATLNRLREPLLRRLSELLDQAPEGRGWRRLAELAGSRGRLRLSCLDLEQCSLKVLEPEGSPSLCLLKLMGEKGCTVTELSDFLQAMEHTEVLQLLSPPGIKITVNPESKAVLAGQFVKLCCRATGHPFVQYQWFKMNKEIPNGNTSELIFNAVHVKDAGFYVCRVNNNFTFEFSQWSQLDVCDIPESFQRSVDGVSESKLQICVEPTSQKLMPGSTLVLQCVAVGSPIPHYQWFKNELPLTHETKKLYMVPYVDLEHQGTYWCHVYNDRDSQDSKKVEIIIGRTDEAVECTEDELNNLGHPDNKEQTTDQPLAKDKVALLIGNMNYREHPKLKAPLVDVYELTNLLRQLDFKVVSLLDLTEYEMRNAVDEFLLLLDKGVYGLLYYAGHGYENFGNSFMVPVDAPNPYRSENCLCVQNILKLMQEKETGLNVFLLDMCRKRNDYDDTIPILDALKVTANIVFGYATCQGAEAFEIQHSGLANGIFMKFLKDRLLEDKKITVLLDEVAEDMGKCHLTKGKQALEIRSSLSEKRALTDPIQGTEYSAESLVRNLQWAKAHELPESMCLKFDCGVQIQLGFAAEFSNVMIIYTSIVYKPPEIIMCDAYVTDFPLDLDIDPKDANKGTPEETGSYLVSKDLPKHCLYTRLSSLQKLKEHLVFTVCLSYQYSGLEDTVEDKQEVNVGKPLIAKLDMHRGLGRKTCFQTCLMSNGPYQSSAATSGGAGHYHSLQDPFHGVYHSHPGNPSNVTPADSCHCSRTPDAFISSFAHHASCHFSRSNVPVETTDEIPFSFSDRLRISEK
How it was run: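 Full-length MALT1 (100-300 ng/well) was pre-incubated with compound for 2 h at RT, then 100 μM Ac-LRSR-AMC was added for 4-12 h. Buffer was 50 mM MES, 150 mM NaCl, 0.1% CHAPS, 1 M ammonium citrate, 10 mM DTT, pH 7, with 0.5% DMSO. IC50 was derived from AMC fluorescence (ex 360/em 460 nm).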

OCI-Ly-10 cells = assay: Anticancer assay (14 days), cell viability by CCK-8; format: cell-based; conditions: Homo sapiens, OCI-Ly10, 336 h, 14 days treatment, fresh treatment every 5th day, CCK-8 viability, read-out: Ly-10 (14d) inhibition IC50
Method: OCI-Ly-10 cells (UHN, Canada) seeded in culture media (IMDM+20% FBS) in 96-well plates were treated with various concentrations of the test compounds. Cells were treated for a period of 14 days (13-15 days depending on the confluency of cells) with fresh treatments every 5th day. After the first treatment, for all subsequent treatments, the cells were centrifuged, the spent media was removed and fresh media containing the test compound was added. Cell viability was assessed using CCK-8 kit (Dojindo Laboratories, China) as per manufacturer's instructions. Plates were read in colorimeter and absorbance was detected. (Detection at 450 nm; Background correction at 650 nm). % inhibition was calculated relative to the samples containing media with 0.1% DMSO alone as per the following formula

[1] = system: NF-kB transcriptional activity in HEK-293-NF-kB-Luc cell line overexpressing MALT1; assay: NF-kB reporter assay (luciferase, MALT1 stably overexpressed); format: cell-based; conditions: Homo sapiens, 24 h, HEK-293-NF-kB-Luc cells stably overexpressing MALT1, 24 h treatment, Bright Glo luminescence; read-out: NF-kB inhibition IC50
How it was run: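 Inhibition of NF-κB activity was expressed relative to 0.1% DMSO wells, from luminescence after 10 min Bright Glo at ambient temperature. Compounds had been applied for 24 h to adhered MALT1-overexpressing HEK-293 NF-κB luciferase reporter cells.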

IC50 (full length MALT1 enzyme)	IC50 (OCI-Ly-10 cells)	SMILES	IC50 [1]
1 to 50 nM	26 to 100 nM	COC(c1c(NC(=O)Nc2cnc(-n3nccn3)c(Cl)c2)cnc2sc(C)nc12)C(C)(C)C (single isomer, unassigned) [Compound 56b, 1-(5-chloro-6-(2H-1,2,3-triazol-2-yl)pyridin-3-yl)-3-(7-(1-methoxy-2,2-dimethylpropyl)-2-methylthiazolo[5,4-b]pyridin-6-yl)urea]	
51 to 100 nM	26 to 100 nM	COc1ccc(Cl)cc1NC(=O)Nc1cnc2sc(C)nc2c1C(C)OC (single isomer, unassigned) [Compound 128b, 1-(5-Chloro-2-methoxyphenyl)-3-(7-(1-methoxyethyl)-2-methylthiazolo[5,4-b]pyridin-6-yl)urea]	
1 to 50 nM	0.1 to 25 nM	COc1cc(-n2nccn2)c(Cl)cc1NC(=O)Nc1cnc2sc(C)nc2c1C(C)OC (single isomer, unassigned) [Compound 131b, 1-(5-Chloro-2-methoxy-4-(2H-1,2,3-triazol-2-yl)phenyl)-3-(7-(1-methoxyethyl)-2-methylthiazolo[5,4-b]pyridin-6-yl)urea]	
1 to 50 nM	0.1 to 25 nM	CCC(OC)c1c(NC(=O)Nc2cnc(-n3nccn3)c(C(F)(F)F)c2)cnc2sc(C)nc12 (single isomer, unassigned) [Compound 146b, 1-(6-(2H-1,2,3-Triazol-2-yl)-5-(trifluoromethyl)pyridin-3-yl)-3-(7-(1-methoxypropyl)-2-methylthiazolo[5,4-b]pyridin-6-yl)urea]	
1 to 50 nM	0.1 to 25 nM	COC(c1c(NC(=O)Nc2cnc(-n3nccn3)c(C(F)(F)F)c2)cnc2sc(C)nc12)C1CC1 (single isomer, unassigned) [Compound 151b, 1-(6-(2H-1,2,3-Triazol-2-yl)-5-(trifluoromethyl)pyridin-3-yl)-3-(7-(cyclopropyl(methoxy)methyl)-2-methylthiazolo[5,4-b]pyridin-6-yl)urea]	
1 to 50 nM	26 to 100 nM	CCC(C)c1c(NC(=O)Nc2cnc(-n3nccn3)c(Cl)c2)cnc2sc(C)nc12 (single isomer, unassigned) [Compound 157b, 1-(7-(sec-Butyl)-2-methylthiazolo[5,4-b]pyridin-6-yl)-3-(5-chloro-6-(2H-1,2,3-triazol-2-yl)pyridin-3-yl)urea]	
1 to 50 nM	26 to 100 nM	COc1ncc(NC(=O)Nc2cnc3sc(C)nc3c2C(C)OC)cc1Cl (single isomer, unassigned) [Compound 159a, 1-(5-Chloro-6-methoxypyridin-3-yl)-3-(7-(1-methoxyethyl)-2-methylthiazolo[5,4-b]pyridin-6-yl)urea]	
1 to 50 nM	26 to 100 nM	COC(C)c1c(NC(=O)Nc2cnc(-n3cccn3)c(Cl)c2)cnc2sc(C)nc12 (single isomer, unassigned) [Compound 196b, (S) or (R)-1-(5-chloro-6-(1H-pyrazol-1-yl)pyridin-3-yl)-3-(7-(1-methoxyethyl)-2-methylthiazolo[5,4-b]pyridin-6-yl)urea]	
1 to 50 nM	26 to 100 nM	COC(C)c1c(NC(=O)Nc2ccc(-n3cccn3)c(Cl)c2)cnc2sc(C)nc12 (single isomer, unassigned) [Compound 201b, (S) or (R)-1-(3-Chloro-4-(1H-pyrazol-1-yl)phenyl)-3-(7-(1-methoxyethyl)-2-methylthiazolo[5,4-b]pyridin-6-yl)urea]	
	26 to 100 nM	Cc1nc2c(N(C)CC3CC3)c(NC(=O)Nc3cnc(-n4nccn4)c(Cl)c3)cnc2s1 [Compound 42, 1-(5-Chloro-6-(2H-1,2,3-triazol-2-yl)pyridin-3-yl)-3-(7-((cyclopropylmethyl)(methyl)amino)-2-methylthiazolo[5,4-b]pyridin-6-yl)urea]	1 to 100 nM
	101 to 250 nM	COCCN(C)c1c(NC(=O)Nc2cnc(-n3nccn3)c(Cl)c2)cnc2sc(C)nc12 [Compound 44, 1-(5-Chloro-6-(2H-1,2,3-triazol-2-yl)pyridin-3-yl)-3-(7-((2-methoxyethyl)(methyl)amino)-2-methylthiazolo[5,4-b]pyridin-6-yl)urea]	101 to 500 nM
	101 to 250 nM	COc1ncc(NC(=O)Nc2cnc3sc(C)nc3c2N(C)CC(C)OC)cc1Cl (stereo not shown) [Compound 55a, 1-(5-Chloro-6-methoxypyridin-3-yl)-3-(7-((2-methoxypropyl)(methyl)amino)-2-methylthiazolo[5,4-b]pyridin-6-yl)urea]	501 to 1500 nM
	101 to 250 nM	COCCN(c1c(NC(=O)Nc2cnc(-n3nccn3)c(C(F)(F)F)c2)cnc2sc(C)nc12)C1CC1 [Compound 69, 1-(6-(2H-1,2,3-Triazol-2-yl)-5-(trifluoromethyl)pyridin-3-yl)-3-(7-(cyclopropyl (2-methoxyethyl)amino)-2-methylthiazolo[5,4-b]pyridin-6-yl)urea]	1 to 100 nM
	501 to 1500 nM	CCC(c1c(NC(=O)Nc2cnc(-n3nccn3)c(C(F)(F)F)c2)cnc2sc(C)nc12)N(C)C (stereo not shown) [Compound 75a, 1-(6-(2H-1,2,3-Triazol-2-yl)-5-(trifluoromethyl)pyridin-3-yl)-3-(7-(1-(dimethylamino)propyl)-2-methylthiazolo[5,4-b]pyridin-6-yl)urea]	101 to 500 nM
	101 to 250 nM	COC(c1c(NC(=O)Nc2cnc(-n3nccn3)c(Cl)c2)cnc2sc(C)nc12)C(C)C (stereo not shown) [Compound 79a, 1-(5-Chloro-6-(2H-1,2,3-triazol-2-yl)pyridin-3-yl)-3-(7-(1-methoxy-2-methylpropyl)-2-methylthiazolo[5,4-b]pyridin-6-yl)urea]	101 to 500 nM
	26 to 100 nM	COc1nc(-n2nccn2)c(C(F)(F)F)cc1NC(=O)Nc1cnc2sc(C)nc2c1C(OC)C(C)C (stereo not shown) [Compound 80a, 1-(7-(1-Methoxy-2-methylpropyl)-2-methylthiazolo[5,4-b]pyridin-6-yl)-3-(2-methoxy-6-(2H-1,2,3-triazol-2-yl)-5-(trifluoromethyl)pyridin-3-yl)urea]	1 to 100 nM
	251 to 500 nM	COC(c1ccc(F)cc1)c1c(NC(=O)Nc2cnc(-n3nccn3)c(C(F)(F)F)c2)cnc2sc(C)nc12 (stereo not shown) [Compound 85b, 1-(6-(2H-1,2,3-Triazol-2-yl)-5-(trifluoromethyl)pyridin-3-yl)-3-(7-((4-fluorophenyl)(methoxy)methyl)-2-methylthiazolo[5,4-b]pyridin-6-yl)urea]	1 to 100 nM
	0.1 to 25 nM	COC(c1c(NC(=O)Nc2cnc(-n3nccn3)c(C(F)(F)F)c2)cnc2sc(C)nc12)C1CCC1 (stereo not shown) [Compound 224b, 1-(6-(2H-1,2,3-Triazol-2-yl)-5-(trifluoromethyl)pyridin-3-yl)-3-(7-(cyclobutyl(methoxy)methyl)-2-methylthiazolo[5,4-b]pyridin-6-yl)urea]	1 to 100 nM
	26 to 100 nM	COC(c1c(NC(=O)Nc2cnc(-n3nccn3)c(Cl)c2)cnc2sc(C)nc12)C1CCC1 (stereo not shown) [Compound 225b, 1-(5-Chloro-6-(2H-1,2,3-triazol-2-yl)pyridin-3-yl)-3-(7-(cyclobutyl(methoxy)methyl)-2-methylthiazolo[5,4-b]pyridin-6-yl)urea]	1 to 100 nM
	26 to 100 nM	CCOc1nc(-n2nccn2)c(C(F)(F)F)cc1NC(=O)Nc1cnc2sc(C)nc2c1C(OC)C1CC1 (stereo not shown) [Compound 226a, 1-(7-(Cyclopropyl(methoxy)methyl)-2-methylthiazolo[5,4-b]pyridin-6-yl)-3-(2-ethoxy-6-(2H-1,2,3-triazol-2-yl)-5-(trifluoromethyl)pyridin-3-yl)urea]	1 to 100 nM
